A short description of series [1]: Postemergence herbicidal activity (% control) against monocot weeds. Type of series: in vivo. As to conditions: post-emergence, 336 h, average, about two weeks after application, read-out: Herbicidal activity (% control), postemergence, monocots; for activity at 2241.7 g/ha: 2 lb./A.; for activity at 4483.4 g/ha: 4 lb./A. An excerpt:
(§1) barnyardgrass (Echinochloa crusgalli) crabgrass (Digitaria spp.) nutsedge (Cyperus esculentus)
(§2) At 2 and 4 pounds per acre:
(§3) **Bermudagrass (Cynodon dactylon)
(§4) *downy brome (Bromus tectorum) foxtail (Setaria faberii)
(§5) Johnsongrass (Sorghum halepense) […]
(§6) quackgrass (Agropyron repens)
(§7) *ryegrass (Lolium perenne)
(§8) *wild oats (Avena factua)
(§9) *yellow millet (Panicum miliaceum)
(§10) The following test procedure is employed.

Series [2] can be described thus: Preemergence herbicidal activity (% control) against monocot weeds. Type of series: in vivo. As to conditions: pre-emergence, 336 h, average, about two weeks after application, read-out: Herbicidal activity (% control), preemergence, monocots; for activity at 2241.7 g/ha: 2 lb./A.; for activity at 4483.4 g/ha: 4 lb./A.
Excerpt: as §1, §2, §3, §4, §5, §6, §7, §8, §9, §10

Series [3] relates to corn. As to the kind of experiment: Crop tolerance (selective herbicidal activity), corn. Type of series: in vivo. How it is done:
as §10
(§11) Following the general test procedure of Example 37, diphenyl ethers are evaluated for significant tolerance (as shown by 50% or less kill of the test crop at levels of application which give more than 50% kill of many or all of the weeds of Example 73) towards some or all of the following common agronomic crops (not all compounds tested against all crops): alfalfa, snapbeans, corn, cotton, cucumbers, peanuts, rape, rice, safflower, soybeans, tomatoes, and wheat.

A short description of series [4]: Postemergence herbicidal activity (% control) against dicot weeds. Conditions: post-emergence, 336 h; for activity at 2241.7 g/ha: read-out: Herbicidal activity (% control), postemergence, dicots, 2 lb./A., average, about two weeks after application; for activity at 4483.4 g/ha: read-out: Herbicidal activity (% control), postemergence, dicots, 4 lb./A., average, about two weeks after application.

Series [5] deals with soybeans. The experiment in a line: Crop tolerance (selective herbicidal activity), soybeans. Conditions: preemergence applications. Type of series: in vivo. As to the method: as §10, §11
Series [6] can be described thus: Preemergence herbicidal activity (% control) against dicot weeds. As to conditions: pre-emergence, 336 h; for activity at 2241.7 g/ha: read-out: Herbicidal activity (% control), preemergence, dicots, 2 lb./A., average, about two weeks after application; for activity at 4483.4 g/ha: read-out: Herbicidal activity (% control), preemergence, dicots, 4 lb./A., average, about two weeks after application.

Series [7] has as its system rice. The experiment in a line: Crop tolerance (selective herbicidal activity), rice. Type of series: in vivo. How it is done: as §10, §11
Series [8] has as its system peanuts. As to the kind of experiment: Crop tolerance (selective herbicidal activity), peanuts. Type of series: in vivo. How it is done:
as §10, §11

The subject of series [9] is wheat. As to the kind of experiment: Crop tolerance (selective herbicidal activity), wheat. Type of series: in vivo. Conditions: postemergence applications. How it is done:
as §10, §11

[10] abbreviates: postemergence applications or applications on transplanted rice.

For `CNC(=O)C(C)Oc1cc(Oc2ccc(C(F)(F)F)cc2Cl)ccc1[N+](=O)[O-]` (stereo not drawn) [Example 52], the activity at 2241.7 g/ha in [1] was found to be 93%; in [2], 98%; in [4], 100%; in series [6], 75%. Moreover, the activity at 4483.4 g/ha is 87% in series [1], 79% in [2], 100% in [4] and 67% in series [6]. The Tolerance to corn entry in series [3] (postemergence applications) and in series [3] (preemergence applications) was “Tolerance (significant tolerance (as shown by 50% or less kill of the test crop at levels of application which give more than 50% kill of many or all of the weeds of Example 73))” each time. In addition, in [5], the Tolerance to soybeans entry is given as “Tolerance (significant tolerance (as shown by 50% or less kill of the test crop at levels of application which give more than 50% kill of many or all of the weeds of Example 73))”. Further, the Tolerance to rice entry in series [7] (preemergence applications) was “Tolerance (significant tolerance (as shown by 50% or less kill of the test crop at levels of application which give more than 50% kill of many or all of the weeds of Example 73))”. In addition, the Tolerance to peanuts entry in series [8] (preemergence applications) is on record as “Tolerance (significant tolerance (as shown by 50% or less kill of the test crop at levels of application which give more than 50% kill of many or all of the weeds of Example 73))”.

In the case of `O=[N+]([O-])c1ccc(Oc2ccc(C(F)(F)F)cc2Cl)cc1OCC(F)(F)F` [Example 11], the activity at 2241.7 g/ha was determined as 100% in series [1], 88% in [2] and 99% in series [6]. In addition, the activity at 4483.4 g/ha is 82% in [1], 81% in [2], 99% in [4] and 98% in [6]. Moreover, the Tolerance to corn entry in series [3] (preemergence applications) is given as “Tolerance (significant tolerance (as shown by 50% or less kill of the test crop at levels of application which give more than 50% kill of many or all of the weeds of Example 73))”. The Tolerance to soybeans entry in [5] is “Tolerance (significant tolerance (as shown by 50% or less kill of the test crop at levels of application which give more than 50% kill of many or all of the weeds of Example 73))”. In series [7] (setting [10]), the Tolerance to rice result is on record as “Tolerance (significant tolerance (as shown by 50% or less kill of the test crop at levels of application which give more than 50% kill of many or all of the weeds of Example 73))”.

For `Cc1cc(Oc2ccc(C(F)(F)F)cc2Cl)ccc1[N+](=O)[O-]` [Example 36], the activity at 2241.7 g/ha in series [1] came out at 94%; in series [2], 100%; in series [4], 98%. Further, the activity at 4483.4 g/ha is 87% in series [1], 93% in series [2], 100% in [4] and 100% in series [6]. The Tolerance to wheat entry in series [9] is listed as “Tolerance (significant tolerance (as shown by 50% or less kill of the test crop at levels of application which give more than 50% kill of many or all of the weeds of Example 73))”. Also, the Tolerance to corn result in [3] (postemergence applications) is “Tolerance (significant tolerance (as shown by 50% or less kill of the test crop at levels of application which give more than 50% kill of many or all of the weeds of Example 73))”. Further, the Tolerance to peanuts result in series [8] (postemergence applications) and in [8] (preemergence applications) was “Tolerance (significant tolerance (as shown by 50% or less kill of the test crop at levels of application which give more than 50% kill of many or all of the weeds of Example 73))” throughout.

`CC(Oc1cc(Oc2ccc(C(F)(F)F)cc2Cl)ccc1[N+](=O)[O-])C(=O)N(C)C` (stereo not drawn) [Example 53]: the activity at 2241.7 g/ha in [1] came to 81%; in series [2], 98%; in [4], 100%; in series [6], 100%. In addition, the activity at 4483.4 g/ha in [1] is 79%; in [2], 98%; in [4], 100%; in series [6], 83%. Also, in [3] (postemergence applications), the Tolerance to corn entry is “Tolerance (significant tolerance (as shown by 50% or less kill of the test crop at levels of application which give more than 50% kill of many or all of the weeds of Example 73))”. Also, the Tolerance to soybeans result in series [5] is reported as “Tolerance (significant tolerance (as shown by 50% or less kill of the test crop at levels of application which give more than 50% kill of many or all of the weeds of Example 73))”. In series [7] (setting [10]), the Tolerance to rice entry is “Tolerance (significant tolerance (as shown by 50% or less kill of the test crop at levels of application which give more than 50% kill of many or all of the weeds of Example 73))”. Further, the Tolerance to peanuts result in series [8] (postemergence applications) and in [8] (preemergence applications) was “Tolerance (significant tolerance (as shown by 50% or less kill of the test crop at levels of application which give more than 50% kill of many or all of the weeds of Example 73))” in each case.

For the molecule `CN(C)c1cc(Oc2ccc(C(F)(F)F)cc2Cl)ccc1[N+](=O)[O-]` [Example 20, 2-chloro-α,α,α-trifluoro-p-tolyl-3-dimethylamino-4-nitrophenyl ether], the activity at 2241.7 g/ha in series [1] was 80%; in series [2], 80%; in series [4], 97%; in series [6], 93%. For the same molecule, the activity at 4483.4 g/ha in series [1] was 78%; in series [2], 88%; in series [4], 88%; in [6] it was 99%. In addition, the Tolerance to rice entry in [7] (setting [10]) is reported as “Tolerance (significant tolerance (as shown by 50% or less kill of the test crop at levels of application which give more than 50% kill of many or all of the weeds of Example 73))”.

With `O=[N+]([O-])c1ccc(Oc2ccc(C(F)(F)F)cc2Cl)cc1Cl` [Example 37, 2-chloro-α,α,α-trifluoro-p-tolyl-3-chloro-4-nitrophenyl ether], the activity at 2241.7 g/ha in [1] and in series [2] was 100% throughout. The activity at 4483.4 g/ha in [1] amounted to 92%; in series [2], 99%; in series [4] it was 100%; in series [6], 100%. Moreover, the Tolerance to peanuts entry in series [8] (postemergence applications) was “Tolerance (significant tolerance (as shown by 50% or less kill of the test crop at levels of application which give more than 50% kill of many or all of the weeds of Example 73))”.

Take `COC(=O)c1cc(Oc2ccc(C(F)(F)F)cc2Cl)ccc1[N+](=O)[O-]` [Example 49, 2-chloro-α,α,α-trifluoro-p-tolyl-3-carbomethoxy-4-nitrophenyl ether]: the activity at 2241.7 g/ha was 77% in [1], 100% in series [2], 100% in [4] and 100% in series [6]. Also, the activity at 4483.4 g/ha in series [1] stood at 86%; in series [2] it was 92%; in series [4] it was 100%; in series [6], 95%. Further, the Tolerance to corn entry in series [3] (postemergence applications) was “Tolerance (significant tolerance (as shown by 50% or less kill of the test crop at levels of application which give more than 50% kill of many or all of the weeds of Example 73))”. Moreover, in [5], the Tolerance to soybeans entry is “Tolerance (significant tolerance (as shown by 50% or less kill of the test crop at levels of application which give more than 50% kill of many or all of the weeds of Example 73))”. The Tolerance to peanuts entry in series [8] (preemergence applications) is on record as “Tolerance (significant tolerance (as shown by 50% or less kill of the test crop at levels of application which give more than 50% kill of many or all of the weeds of Example 73))”.

Regarding `C#CCOc1cc(Oc2ccc(C(F)(F)F)cc2Cl)ccc1[N+](=O)[O-]` [Example 13], the results for the activity at 2241.7 g/ha in series [1], in series [2] and in [6] were 100%, 78% and 72%, respectively. The activity at 4483.4 g/ha came out at 77% in [1], 76% in [2], 98% in series [4] and 90% in series [6].

The values are drawn from patent US4419123A, “Herbicidal 4-trifluoromethyl-3'-carbon-substituted-4'-substituted diphenyl ethers” (Rohm and Haas Company, priority 1981, dated 1983).
